Three compounds from paper PMC9861858, “Stereoselective Synthesis and Antiproliferative Activities of Tetrafunctional Diterpene Steviol Derivatives” (International Journal of Molecular Sciences, 2023) can be followed below.

For data set [1], the system named is HeLa cells. Briefly: MTT antiproliferative assay, HeLa. The note with it: Homo sapiens, HeLa, 72 h, values <20% considered negligible, read-out: Growth inhibition (%) ± SEM, HeLa. The data set is classed as cell-based, human. How it is done:
(§1) The in vitro antiproliferative activities of the synthesised aminotriols 5–18 against a panel of different human cancer cell lines of gynecological origin, including cervical (SiHA and HeLa), breast (MCF7 and MDA-MB-231), ovary (A2780) cancers and NIH/3T3 healthy fibroblasts, were assayed by the MTT method. Cisplatin, a clinically applied anticancer agent was used as a reference compound, and the results are summarised in Figure 3 and Table S1 in the Supplementary Materials.
(§2) The growth-inhibitory effects of the presented terpenes were determined by a standard MTT [3-(4,5-dimethylthiazol2-yl)-2,5-diphenyltetrazolium bromide] assay against […] human cancer cell lines (cervical cancer HeLa and SiHa cell lines, breast cancer MCF-7 and MDA-MB-231 and ovarian cancer A2780). Murine embryonal fibroblast cells (NIH/3T3) were used to determine selectivity. All cell lines were purchased from the European Collection of Cell Cultures (Salisbury, UK). The cells were cultivated in Eagle’s minimal essential medium supplemented with 10% fetal bovine serum, 1% non-essential amino acids, and 1% Antibiotic-Antimycotic complex (penicillin, streptomycin, amphotericin B) at 37 °C in a humidified atmosphere containing 5% CO2. All media and supplements were purchased from Lonza Group Ltd. (Basel, Switzerland). Cancer cells were seeded into 96-well plates (5000 cells/well) after an overnight incubation, and the test compounds were added at two different concentrations (10 μM and 30 μM) and incubated for another 72 h under cell-culturing conditions. Finally, 20 μL of a 5 mg/mL MTT solution was added to each well, and the contents were incubated for a further 4 h. The medium was removed, and the precipitated formazan crystals were dissolved in DMSO by shaking at 37 °C for 60 min. The absorbance was measured at 545 nm by using a microplate reader (SPECTROStar Nano, BMG Labtech, Offenburg, Germany). Clinically utilised anticancer agent cisplatin (Ebewe GmbH, Unterach, Austria) was included as a reference molecule. Calculations were performed using the GraphPad Prism 9 software (GraphPad Software Inc., San Diego, CA, USA).
Background: Tetrazolium assays rely on reduction of a dye to a coloured formazan, in cell work by metabolically active cells.

Data set [2] has as its system SiHa cells. Nature of the data set: MTT antiproliferative assay, SiHa. The data set is classed as cell-based, human. The note with it: Homo sapiens, SiHa, 72 h, values <20% considered negligible, read-out: Growth inhibition (%) ± SEM, SiHa. As to the method: as §1, §2
The test system of data set [3] is MCF-7 cells. Nature of the data set: MTT antiproliferative assay, MCF-7. To be noted: for Antiproliferative effect / selectivity on MCF-7, in words: 10 and 30 μM; for inhibition at 10 µM / inhibition at 30 µM: Homo sapiens, 72 h, values <20% considered negligible, read-out: Growth inhibition (%) ± SEM, MCF-7; for inhibition at 10 µM: MCF7, 10 μM; for inhibition at 30 µM: MCF7, 30 μM. In kind it is cell-based, human. How it is done: as §1, §2

Data set [4] concerns MDA-MB-231 cells. Briefly: MTT antiproliferative assay, MDA-MB-231. In kind it is cell-based, human. To be noted: for Antiproliferative effect / selectivity on MDA-MB-231, in words: 10 and 30 μM; for inhibition at 10 µM / inhibition at 30 µM: Homo sapiens, 72 h, values <20% considered negligible, read-out: Growth inhibition (%) ± SEM, MDA-MB-231; for inhibition at 10 µM: MDA-MB-231, 10 μM; for inhibition at 30 µM: MDA-MB-231, 30 μM. As to the method:
as §1, §2

Data set [5] deals with A2780 cells. Nature of the data set: MTT antiproliferative assay, A2780. The note with it: for Antiproliferative effect on A2780, in words: 10 and 30 μM; for inhibition at 10 µM / inhibition at 30 µM: Homo sapiens, 72 h, values <20% considered negligible, read-out: Growth inhibition (%) ± SEM, A2780; for inhibition at 10 µM: A2780, 10 μM; for inhibition at 30 µM: A2780, 30 μM. In kind it is cell-based, human. As to the method: as §1, §2

The test system of data set [6] is NIH/3T3 fibroblasts. Nature of the data set: MTT assay on fibroblasts (selectivity). The note with it: Mus musculus, 72 h, values <20% considered negligible, read-out: Growth inhibition (%) ± SEM, NIH/3T3; for inhibition at 10 µM: NIH3T3, 10 μM; for inhibition at 30 µM: NIH3T3, 30 μM. In kind it is cell-based, murine. As to the method: as §1, §2
Data set [7] can be described thus: Kinetic aqueous solubility. The data set is classed as physicochemical. The note with it: phosphate buffered saline with 5% DMSO, aqueous with cosolvent or surfactant or cyclodextrin, kinetic from dmso stock; after 2 h, at 37 °C in PBS, pH 7.4, 5% DMSO; target concentration 500 μM; mean ± S.E.M, n = 3. As to the method: (§3) Filtrates and calibration solutions (5–500 μ M) of the kinetic solubility study and starting donor and acceptor solutions of the PAMPA-GI study were investigated by HPLC-DAD-MS. LC-MS analysis was performed using a Waters 2795 HPLC with a Waters 2487 DAD detector coupled with a Micromass Quattro Ultima TMPt quadrupol mass spectrometer equipped with an ESI source. Measurements were performed on a Waters XSelect C18 (150 × 4.6 mm; 3.5 μm) column with a […] eluent flow rate and the temperature set at 40 °C. The composition of eluent A was MilliQ water with 0.1% formic acid, and that of eluent B was an acetonitrile and MilliQ water mixture (95:5, v/v), also with 0.1% formic acid. The following linear gradient program was used: 0–6 min, 10–100% B; this was held for 3 min, then from 9.01 min on, back to the starting composition of 10% B–90% A. The injection volume was 10 μL for each sample. Chromatographic profiles were registered at dual wavelength, 220 and 240 nm. The mass spectrometer was used in negative ion mode for samples 2, 3 and 4b, and in positive ion mode for other samples. The operating parameters of the MS were: Mass range of m/z 150–700. Nitrogen gas flow rate was 350 L/h, temperature of 350 °C and pressure of 6 bar. The quadrupol temperature was 120 °C, and the capillary voltage was 2.5 kV. Fragmentor’s voltage of 60 V.
(§4) Intestinal (GI) permeability was determined by using an intestinal-specific parallel artificial membrane permeability assay (PAMPA-GI [36]]). […] All solutions were filtered by MultiScreen HTS Vacuum Manifold (Merck Ltd., Budapest, Hungary) after the incubation period. The target concentration was 500 μM for every sample investigated. The intestinal-specific effective permeability of the samples was determined by PAMPA-GI. To prepare starting solutions for a 96-well donor plate, 15 μLs of the 10 mM DMSO stock solution of investigation compounds and 285 μL pH 6.5 phosphate buffer solution were mixed. These solutions were left in a shaking incubator (300 rpm) at 25 °C for 1 h. Meanwhile, a 96-well acceptor plate was filled with 300 μL of pH 7.4 PBS buffer solution containing 5% DMSO. The intestinal-specific artificial membrane was prepared the following way: the hydrophobic filter material of the donor plate was coated with a mixture of phosphatidylcholine/cholesterol = 2:1 (5 μL, 4 % (w/v) in dodecane). After that, all donor wells were filled with 150 μL of the starting donor solutions, and they were carefully placed on the acceptor plate and incubated at 37 °C for 4 h. After the end of the incubation period the donor and acceptor plates were separated carefully. A total of 150 μL of the donor, acceptor and the starting donor solutions were sampled and analysed with HPLC-DAD-MS. The effective permeability and membrane retention of drugs were calculated using the following equations: Pe=−2.303/A·(t−τss)·1/1+rv·lg[−rv+(1+rv/1−MR)·]CD(t)/CD(0) MR=1−CD(t)/CD(0)−VA·CA(t)/VD·CD(0) where Pe is the effective permeability coefficient (cm/s), A is the filter area (0.3 cm^2), VD and VA are the volumes in the donor (0.15 cm^3) and acceptor phase (0.3 cm^3), t is the incubation time (s), τSS is the time to reach steady-state (s), CD(t) is the concentration of the compound in the donor phase at time point t (mol/cm^3), CD(0) is the concentration of the compound in the donor phase at time point zero (mol/cm^3), rv is the aqueous compartment volume ratio (VD/VA), MR is the membrane retention factor.

The nature of data set [8]: Intestinal-specific parallel artificial membrane permeability assay (PAMPA-GI). The note with it: gradient pH system (pH donor 6.5 → pH acceptor 7.4) after 4 h, at 37 °C, mean ± S.E.M, n = 3; for Papp at 4 h, 500 µM: PAMPA, read-out: PAMPA-GI Pe. The data set is classed as in vitro ADME. How it is done:
as §3, §4
(In general: PAMPA measures passive passage across an artificial lipid membrane.)

Values after ≈ are worked out from the molar mass of the structure shown. “Also recorded” adds a separate entry of the source.

The term solubility (kinetic) denotes solubility judged after dilution from a stock solution rather than from solid. As a reminder, the melting point is the temperature of the solid-liquid transition.

`COC(=O)[C@]1(C)CCC[C@@]2(C)C3CC[C@]4(O)C[C@@]3(CCC21)[C@@H](O)[C@]4(O)CN[C@H](C)c1ccccc1` (stereo partly drawn) [Compound 7, (4R,6aR,7R,8R,9S,11bS)-Methyl 7,8,9-Trihydroxy-4,11b-dimethyl-8-((((R)-1-phenylethyl)amino)methyl)tetradecahydro-6a,9-methanocyclohepta[a]naphthalene-4-carboxylate]: the melting point is 84 to 87 °C. Besides, in data set [1], the inhibition at 10 µM was 33.7 ± 0.93% and the inhibition at 30 µM came out at 97.76 ± 0.25%. In [2], the inhibition at 10 µM is less than 20% and the inhibition at 30 µM was 94.56 ± 0.54%. Further, in [3], the “Antiproliferative effect / selectivity on MCF-7, in words” value is “slightly weaker action”; the inhibition at 10 µM came to 62.8 ± 1.05%; the inhibition at 30 µM was determined as 97.69 ± 0.38%. Besides, in data set [4], the “Antiproliferative effect / selectivity on MDA-MB-231, in words” value is “noteworthy selectivity”; the inhibition at 10 µM was found to be 88.05 ± 0.59%; the inhibition at 30 µM was 94.56 ± 0.63%. In data set [5], the “Antiproliferative effect on A2780, in words” value is “slightly weaker action”; the inhibition at 10 µM is 52.9 ± 1.83%; the inhibition at 30 µM was determined as 98.14 ± 0.36%. In data set [6], the inhibition at 10 µM is 35.8 ± 4.12% and the inhibition at 30 µM was 100.5 ± 0.37%. This compound also showed a kinetic solubility at 2 h in data set [7] of 182 ± 3.2 µM (≈ 88.2 µg/mL). Moreover, in data set [8], the Papp at 4 h, 500 µM is 0.64 ± 0.07 ×10⁻⁶ cm/s and the “PAMPA-GI MR (membrane retention)” value came to 28.8 ± 5.8%.
Regarding `COC(=O)[C@]1(C)CCC[C@@]2(C)C3CC[C@]4(O)C[C@@]3(CCC21)[C@@H](O)[C@]4(O)CN[C@@H](C)c1ccccc1` (stereo partly drawn) [Compound 8, (4R,6aR,7R,8R,9S,11bS)-Methyl 7,8,9-Trihydroxy-4,11b-dimethyl-8-((((S)-1-phenylethyl)amino)methyl)tetradecahydro-6a,9-methanocyclohepta[a]naphthalene-4-carboxylate], the melting point lay within 157 to 161 °C. In addition, in [1], the inhibition at 10 µM is less than 20% and the inhibition at 30 µM came out at 96.19 ± 0.25%. Besides, in data set [2], the inhibition at 10 µM is less than 20% and the inhibition at 30 µM stood at 95.09 ± 0.69%. Besides, in data set [3], the “Antiproliferative effect / selectivity on MCF-7, in words” value is on record as “slightly weaker action”; the inhibition at 10 µM turned out to be 74 ± 2.14%; the inhibition at 30 µM turned out to be 96.04 ± 0.32%. In data set [4], the “Antiproliferative effect / selectivity on MDA-MB-231, in words” value was “noteworthy selectivity”; the inhibition at 10 µM was 84.3 ± 2.78%; the inhibition at 30 µM is 95.62 ± 0.92%. Further, in data set [5], the “Antiproliferative effect on A2780, in words” value is “slightly weaker action”; the inhibition at 10 µM worked out at 59.9 ± 3.03%; the inhibition at 30 µM is 97.45 ± 0.36%. Also, in data set [6], the inhibition at 10 µM came out at 58.8 ± 1.41% and the inhibition at 30 µM turned out to be 103.2 ± 0.33%. The same compound returned a kinetic solubility at 2 h in data set [7] of 131 ± 2.2 µM (≈ 63.8 µg/mL). For the same compound, in data set [8], the Papp at 4 h, 500 µM is 0.58 ± 0.01 ×10⁻⁶ cm/s and the “PAMPA-GI MR (membrane retention)” value is listed as 42.6 ± 3.9%.
Consider `COC(=O)[C@]1(C)CCC[C@@]2(C)C3CC[C@]4(O)C[C@@]3(CCC21)[C@@H](O)[C@]4(O)CNCc1ccc(OC)cc1` (stereo partly drawn) [Compound 10, (4R,6aR,7R,8R,9S,11bS)-Methyl 7,8,9-Trihydroxy-8-(((4-methoxybenzyl)amino)methyl)-4,11b-dimethyltetradecahydro-6a,9-methanocyclohepta[a]naphthalene-4-carboxylate], for which the melting point lay in the range of 161 to 163 °C. In data set [1], the inhibition at 10 µM is 27.8 ± 1.05% and the inhibition at 30 µM amounted to 96.06 ± 0.93%. In addition, in [2], the inhibition at 10 µM came out at 24.1 ± 1.39% and the inhibition at 30 µM came to 94.64 ± 0.5%. In addition, in data set [3], the “Antiproliferative effect / selectivity on MCF-7, in words” value is listed as “higher selectivity; also recorded: performed best”; the inhibition at 10 µM was determined as 74.3 ± 2.62%; the inhibition at 30 µM came out at 95.66 ± 0.76%. Moreover, in [4], the inhibition at 10 µM was 37.8 ± 2.27% and the inhibition at 30 µM was found to be 93.42 ± 0.56%. Besides, in [5], the inhibition at 10 µM is less than 20% and the inhibition at 30 µM stood at 96.79 ± 0.25%. For the same compound, in [6], the inhibition at 10 µM was less than 20% and the inhibition at 30 µM worked out at 90.9 ± 1.17%. In [7], this compound returned a kinetic solubility at 2 h of 143 ± 26.8 µM (≈ 71.7 µg/mL). In [8], the Papp at 4 h, 500 µM is 0.37 ± 0.11 ×10⁻⁶ cm/s and the “PAMPA-GI MR (membrane retention)” value stood at 6.1 ± 1.1%.
